The values below come from patent US20210269434A1, “TRICYCLIC COMPOUNDS AS INHIBITORS OF KRAS” (Incyte Corporation, priority 2020, published 2021).

Where two headings read alike, the source gives them in different places.

Assay [1] has as its system MIA PaCa-2 (KRAS G12C) cells. In words: Cellular pERK HTRF assay (KRAS_G12C pERK). Format: cell-based, human. Particulars: read-out: G12C_pERK. The procedure: Example C: Cellular pERK HTRF Assay
MIA PaCa-2 (KRAS G12C; ATCC® CRL-1420), A427 (KRAS G12D; ATCC® HTB53), HPAF-II (KRAS G12D; ATCC® CRL-1997) and NCI-H838 (KRAS WT; ATCC® CRL-5844) cells are purchased from ATCC and maintained in RPMI 1640 media supplemented with 10% FBS (Gibco/Life Technologies). The cells are plated at 5000 cells per well (8 uL) into Greiner 384-well low volume, flat-bottom, tissue culture treated white plates and incubated overnight at 37° C., 5% CO2. The next morning, test compound stock solutions are diluted in media at 3× the final concentration, and 4 uL are added to the cells. The plate is mixed by gentle rotation for 30 seconds (250 rpm) at room temperature. The cells are incubated with the KRAS G12C and G12D compounds for 4 hours or 2 hours respectively at 37° C., 5% CO2.
4 uL of 4× lysis buffer with blocking reagent (1:25) (Cisbio) are added to each well and plates are rotated gently (300 rpm) for 30 minutes at room temperature. 4 uL per well of Cisbio anti Phospho-ERK 1/2 d2 is mixed with anti Phospho-ERK 1/2 Cryptate (1:1) are added to each well, mixed by rotation and incubated overnight in the dark at room temperature. Plates are read on the Pherastar plate reader at 665 nm and 620 nm wavelengths. IC50 determination is performed by fitting the curve of inhibitor percent inhibition versus the log of the inhibitor concentration using the GraphPad Prism 7 software.
(TR-FRET usually uses a lanthanide donor and a delayed reading to cut background.)

The target in the next assay is KRAS G12C (Homo sapiens, UniProt P01116, G12C). Nature of the assay: GDP-GTP exchange assay (KRAS_G12C exchange). Format: biochemical. Particulars: bodipy-GDP loaded KRAS G12C 2.5 nM, SOS1 150 nM, GppNHp; 2 hours pre-incubation, 2 hours reaction; read-out: G12C_exchange. The procedure: Example A. GDP-GTP Exchange Assay
KRAS G12C, sequence (P01116 1-188 isoform P01116-2 G12C): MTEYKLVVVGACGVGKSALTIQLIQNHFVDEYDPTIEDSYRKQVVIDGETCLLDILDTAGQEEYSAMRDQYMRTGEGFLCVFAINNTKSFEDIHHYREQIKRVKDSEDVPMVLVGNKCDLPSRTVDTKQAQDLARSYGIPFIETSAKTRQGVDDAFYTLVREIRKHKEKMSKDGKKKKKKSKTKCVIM
The inhibitor potency of the exemplified compounds was determined in a fluorescence based guanine nucleotide exchange assay, which measures the exchange of bodipy-GDP (fluorescently labeled GDP) for GppNHp (Non-hydrolyzable GTP analog) to generate the active state of KRAS in the presence of SOS1 (guanine nucleotide exchange factor). Inhibitors were serially diluted in DMSO and a volume of 0.1 μL was transferred to the wells of a black low volume 384-well plate. 5 μL/well volume of bodipy-loaded KRAS G12C diluted to 5 nM in assay buffer (25 mM Hepes pH 7.5, 50 mM NaCl, 10 mM MgCl2 and 0.01% Brij-35) was added to the plate and pre-incubated with inhibitor for 2 hours at ambient temperature. Appropriate controls (enzyme with no inhibitor or with a G12C inhibitor (AMG-510)) were included on the plate. The exchange was initiated by the addition of a 5 μL/well volume containing 1 mM GppNHp and 300 nM SOS1 in assay buffer. The 10 μL/well reaction concentration of the bodipy-loaded KRAS G12C, GppNHp, and SOS1 were 2.5 nM, 500 uM, and 150 nM, respectively. The reaction plates were incubated at ambient temperature for 2 hours, a time estimated for complete GDP-GTP exchange in the absence of inhibitor. For the KRAS G12D and G12V mutants, similar guanine nucleotide exchange assays were used with 2.5 nM as final concentration for the bodipy loaded KRAS proteins and with 4 hours and 3 hours incubation after adding GppNHp-SOS1 mixture for G12D and G12V respectively. A cyclic peptide described to selectively bind G12D mutant (Sakamoto et al., BBRC 484.3 (2017), 605-611) or internal compounds with confirmed binding were used as positive controls in the assay plates. Fluorescence intensities were measured on a PheraStar plate reader instrument (BMG Labtech) with excitation at 485 nm and emission at 520 nm.
Either GraphPad prism or XLfit was used to analyze the data. The IC50 values were derived by fitting the data to a four parameter logistic equation producing a sigmoidal dose-response curve with a variable Hill coefficient. Prism equation: Y=Bottom+(Top−Bottom)/(1+10^((Log lC50−X)*Hill slope)); XLfit equation: Y=(A+((B−A)/(1+((X/C)^D)))) where X is the logarithm of inhibitor concentration and Y is the response.

The mark [2] stands for this setting: Homo sapiens, MIA PaCa-2, 4 hours incubation.

Turning to `Cc1c(Cl)cccc1-c1c(C(F)(F)F)cc2c(nc(N3CC(C)(N(C)C)C3)c3nnn([C@H]4CCN(C(=O)/C=C/CN(C)C)[C@H](CC#N)C4)c32)c1F` [Example 240, 2-((2S,4S)-4-(7-(3-chloro-2-methylphenyl)-4-(3-(dimethylamino)-3-methylazetidin-1-yl)-6-fluoro-8-(trifluoromethyl)-1H-[1,2,3]triazolo[4,5-c]quinolin-1-yl)-1-((E)-4-(dimethylamino)but-2-enoyl)piperidin-2-yl)acetonitrile], the IC50 (in assay [1] (setting [2]); at KRAS G12C) was at most 100 nM in each case.

On to `C=CC(=O)N1CC[C@H](n2cnc3c(N4CC(N(C)C)C4)nc4c(F)c(-c5ccccc5C(F)(F)F)c(Cl)cc4c32)C[C@H]1CC#N` [Example 106, 2-((2S,4S)-1-acryloyl-4-(8-chloro-4-(3-(dimethylamino)azetidin-1-yl)-6-fluoro-7-(2-(trifluoromethyl)phenyl)-1H-imidazo[4,5-c]quinolin-1-yl)piperidin-2-yl)acetonitrile], for which the IC50 (in assay [1] (setting [2]); at KRAS G12C) was at most 100 nM in each case.

Take `CC#CC(=O)N1CC[C@H](n2nnc3c(OC[C@@H]4CCCN4C)nc4c(F)c(-c5cccc(C)c5C)c(C)cc4c32)C[C@H]1CC#N` [Example 139, 2-((2S,4S)-1-(but-2-ynoyl)-4-(7-(2,3-dimethylphenyl)-6-fluoro-8-methyl-4-(((S)-1-methylpyrrolidin-2-yl)methoxy)-1H-[1,2,3]triazolo[4,5-c]quinolin-1-yl)piperidin-2-yl)acetonitrile]: the IC50 (in assay [1] (setting [2]); at KRAS G12C) was at most 100 nM each time.

For `C=CC(=O)N1CC[C@H](n2nnc3c(OC[C@@H]4CCCN4C)nc4c(F)c(-c5ccccc5)c(Cl)cc4c32)C[C@H]1CC#N` [Example 155, 2-((2S,4S)-1-acryloyl-4-(8-chloro-6-fluoro-4-(((S)-1-methylpyrrolidin-2-yl)methoxy)-7-phenyl-1H-[1,2,3]triazolo[4,5-c]quinolin-1-yl)piperidin-2-yl)acetonitrile], the IC50 (in assay [1] (setting [2]); on KRAS G12C) was at most 100 nM throughout.

Regarding `C=CC(=O)N1CCC(n2cnc3c(OC[C@@H]4CCCN4C)nc4c(F)c(-c5c(O)cccc5F)c(Cl)cc4c32)CC1` (single isomer, unassigned) [Example 2a], the IC50 in assay [1] (setting [2]) was in the range of 1000 to 5000 nM; on KRAS G12C, 100 to 1000 nM.

With `CC#CC(=O)N1CC[C@H](n2nnc3c(N4CCOCC4=O)nc4c(F)c(-c5cccc(C)c5Cl)c(C)cc4c32)C[C@H]1CC#N` [Example 260, 2-((2S,4S)-1-(but-2-ynoyl)-4-(7-(2-chloro-3-methylphenyl)-6-fluoro-8-methyl-4-(3-oxomorpholino)-1H-[1,2,3]triazolo[4,5-c]quinolin-1-yl)piperidin-2-yl)acetonitrile], the IC50 (in assay [1] (setting [2]); on KRAS G12C) was at most 100 nM in each case.

In the case of `C=CC(=O)N1CC[C@H](n2cnc3c(N4CC(N(C)C)C4)nc4c(F)c(-c5cc(O)cc6ccccc56)c(Cl)cc4c32)C[C@H]1CC#N` (single isomer, unassigned) [Example 47a], the IC50 (in assay [1] (setting [2]); on KRAS G12C) was at most 100 nM each time.

On to `C=CC(=O)N1CC[C@H](n2nnc3c(N4CC(N(C)C)C4)nc4c(F)c(-c5cccc(C)c5C)c(Cl)cc4c32)C[C@H]1CC#N` [Example 111, 2-((2S,4S)-1-acryloyl-4-(8-chloro-4-(3-(dimethylamino)azetidin-1-yl)-7-(2,3-dimethylphenyl)-6-fluoro-1H-[1,2,3]triazolo[4,5-c]quinolin-1-yl)piperidin-2-yl)acetonitrile], for which the IC50 (in assay [1] (setting [2]); on KRAS G12C) was at most 100 nM in each case.

On to `CC#CC(=O)N1CC[C@H](n2nnc3cnc4c(F)c(-c5c(C)c(Cl)cc6[nH]ncc56)c(Cl)cc4c32)C[C@H]1CC#N` [Example 188, 2-((2S,4S)-1-(but-2-ynoyl)-4-(8-chloro-7-(6-chloro-5-methyl-1H-indazol-4-yl)-6-fluoro-1H-[1,2,3]triazolo[4,5-c]quinolin-1-yl)piperidin-2-yl)acetonitrile], for which the IC50 (in assay [1] (setting [2]); at KRAS G12C) was at most 100 nM in each case.

With `CC#CC(=O)N1CC[C@H](n2cnc3c(OC[C@@H]4CCCN4C)nc4c(F)c(-c5c(C)c(Cl)cc6[nH]ncc56)c(Cl)cc4c32)C[C@H]1CC#N` [Example 180, 2-((2S,4S)-1-(but-2-ynoyl)-4-(8-chloro-7-(6-chloro-5-methyl-1H-indazol-4-yl)-6-fluoro-4-(((S)-1-methylpyrrolidin-2-yl)methoxy)-1H-imidazo[4,5-c]quinolin-1-yl)piperidin-2-yl)acetonitrile], the IC50 (in assay [1] (setting [2]); on KRAS G12C) was at most 100 nM each time.

In the case of `C=CC(=O)N1CCC(n2cnc3cnc4c(F)c(-c5c(O)cccc5F)c(Cl)cc4c32)CC1` [Example 13, 1-(4-(8-Chloro-6-fluoro-7-(2-fluoro-6-hydroxyphenyl)-1H-imidazo[4,5-c]-quinolin-1-yl)piperidin-1-yl)prop-2-en-1-one], the IC50 in assay [1] (setting [2]) was 1000 to 5000 nM; on KRAS G12C it was 100 to 1000 nM.

For the compound `C=CC(=O)N1CC(n2c(=O)n(C[C@@H]3CCCN3C)c3c(=O)n(-c4c(C)ccnc4C(C)C)c4nc(-c5cc(O)cc6ccccc56)c(F)cc4c32)C1` [Example 27, (S)-1-(1-acryloylazetidin-3-yl)-8-fluoro-7-(3-hydroxynaphthalen-1-yl)-5-(2-isopropyl-4-methylpyridin-3-yl)-3-((1-methylpyrrolidin-2-yl)methyl)-3,5-dihydro-1H-imidazo[4,5-c][1,8]naphthyridine-2,4-dione], the IC50 in assay [1] (setting [2]) is 1000 to 5000 nM; at KRAS G12C, 100 to 1000 nM.

Regarding `C=CC(=O)N1CC[C@H](n2cnc3c(N4CC(N(C)C)C4)nc4c(F)c(-c5cncc6ccccc56)c(Cl)cc4c32)C[C@H]1CC#N` (single isomer, unassigned) [Example 73b], the IC50 (in assay [1] (4 hours incubation); on KRAS G12C) was at most 100 nM in each case.

`C=CC(=O)N1CC[C@H](n2cnc3c(N4CC(N(C)C)C4)nc4c(F)c(-c5c(C)c(F)cc6[nH]ncc56)c(Cl)cc4c32)C[C@H]1CC#N` [Example 266a, 2-((2S,4S)-1-acryloyl-4-(8-chloro-4-(3-(dimethylamino)azetidin-1-yl)-6-fluoro-7-(6-fluoro-5-methyl-1H-indazol-4-yl)-1H-imidazo[4,5-c]quinolin-1-yl)piperidin-2-yl)acetonitrile]: the IC50 (in assay [1] (setting [2]); at KRAS G12C) was at most 100 nM in each case.

Take `C=CC(=O)N1CC[C@H](n2nnc3c(N4CC(N(C)C)C4)nc4c(F)c(-c5cccc(C)c5)c(Cl)cc4c32)C[C@H]1CC#N` [Example 114, 2-((2S,4S)-1-acryloyl-4-(8-chloro-4-(3-(dimethylamino)azetidin-1-yl)-6-fluoro-7-(m-tolyl)-1H-[1,2,3]triazolo[4,5-c]quinolin-1-yl)piperidin-2-yl)acetonitrile]: the IC50 (in assay [1] (setting [2]); at KRAS G12C) was at most 100 nM throughout.

In the case of `C=CC(=O)N1CCC(n2cnc3c(N4CC(N(C)CC)C4)nc4c(F)c(-c5cccc6cccc(Cl)c56)c(C)cc4c32)C[C@H]1CC#N` (single isomer, unassigned) [Example 223a], the IC50 (in assay [1] (setting [2]); at KRAS G12C) was at most 100 nM each time.
